Assay results from paper PMC3608651, “A Broad Profile of Co-Dominant Epitopes Shapes the Peripheral Mycobacterium tuberculosis Specific CD8+ T-Cell Immune Response in South African Patients with Active Tuberculosis” (PLoS ONE, 2013).
Read-outs that look alike come from different tables or passages of the source. Marks after values point to notes of the source that are not given here.

Assays:
[1] = target: T1, HLA-A*30:02 (Homo sapiens, UniProt P04439, D101N/D140H/D185E/E176R/F33S/G80R/H175R/K168Q/Q94H/R138E/R41S/V100E); settings: cited from earlier work
[2] = target: T2, HLA-B*07:02 (Homo sapiens, UniProt P01889); settings: cited from earlier work
[3] = target: T3, HLA-A*30:01 (Homo sapiens, UniProt P04439, D140H/D185E/E176W/F33S/G80R/H175R/K168Q/R138E/R41S); settings: cited from earlier work
[4] = target: T4, HLA-A*02:01 (Homo sapiens, UniProt P04439, D140Y/D185E/D98H/E176V/E277Q/G131W/G231S/I119V/I121R/I166T/I218V/L300P/L318F/N151K/N90K/P208A/P217A/Q86G/Q94H/R138H/R169H/T345S); settings: cited from earlier work
[5] = target: T1, HLA-A*30:02; settings: cited from earlier work; remark: listed apart in the source
[6] = target: T5, HLA-A*24:02 (Homo sapiens, UniProt P04439, D101N/D140Y/D185E/E176V/E190D/F33S/G103R/G107R/I119L/I121M/I306V/K335N/L105A/L180Q/L300P/N151K/N90K/Q86E/Q94H/R106L/R138H/R89G/T104I/T345S/V100E/W191G/Y123F); settings: cited from earlier work
[7] = target: T6, HLA-B*58:01 (Homo sapiens, UniProt P01889, A329T/C349S/D201E/D98Y/E176V/E187L/E204Q/E69T/G107R/I218V/I90N/K202T/L105A/L119I/N104I/N87E/Q89R/Q94S/R106L/R155S/R180L/R86G/S101N/S121R/S35A/S48A/T118I/V127L/V306I/V36M/Y140S/Y91M); type: binding; settings: time points 0-8 h
[8] = target: T2, HLA-B*07:02; settings: cited from earlier work; remark: listed apart in the source
[9] = target: T7, HLA-C*07:01 (Homo sapiens, UniProt P10321, K90N/S123Y); assay: off-rate assay (t1/2); type: binding; settings: time points 0-8 h
[10] = target: T7, HLA-C*07:01; type: binding; settings: percent relative the binding of positive control peptide […]; duplicated experiments; positive binder >40%
[11] = target: T6, HLA-B*58:01; type: binding
[12] = target: T3, HLA-A*30:01; settings: cited from earlier work; remark: listed apart in the source
[13] = target: T1, HLA-A*30:02; settings: cited from earlier work; remark: listed apart in the source
[14] = target: T6, HLA-B*58:01; type: binding; settings: percent relative the binding of positive control peptide […]; duplicated experiments; positive binder >40%
[15] = target: T5, HLA-A*24:02; settings: percent relative the binding of a positive control peptide; […]; cited from earlier work
[16] = target: T5, HLA-A*24:02; settings: cited from earlier work; remark: listed apart in the source
[17] = target: T4, HLA-A*02:01; settings: cited from earlier work; remark: listed apart in the source
[18] = target: T7, HLA-C*07:01; assay: affinity assay (ED50); type: binding
[19] = target: HLA-A*68:01 (Homo sapiens, UniProt P04439, A269V/D185E/E176V/E277Q/E87N/F33Y/G231S/I121M/I166T/I218V/L180W/L300P/L318F/N151K/P208A/P217A/Q86R/R169H/T345S); type: binding; settings: percent relative the binding of positive control peptide […]; duplicated experiments; positive binder >40%
[20] = target: T3, HLA-A*30:01; settings: cited from earlier work; remark: listed apart in the source
[21] = target: T2, HLA-B*07:02; settings: cited from earlier work; remark: listed apart in the source
[22] = target: T4, HLA-A*02:01; settings: cited from earlier work; remark: listed apart in the source
[23] = percent relative the binding of a positive control peptide, […]
[24] = percent relative the binding of a positive control peptide, wild-type epitopes marked **

Sequence | O-rate B*07:02 (t1/2) [2] [h] | Aff A*30:01 (ED50) [3] [µM] | O-rate A*02:01 (t1/2) [4] [h] | O-rate A*30:02 (t1/2) [5] [h] | O-rate A*24:02 (t1/2) [6] [h] | O-rate B*58:01 (t1/2) [7] [h] | Bind B*07:02 [8, 23] | O-rate C*07:01 (t1/2) [9] [h] | Bind C*07:01 [10] [%] | Aff B*58:01 (ED50) [11] [µM] | Aff A*30:02 (ED50) [13] [µM] | Bind B*58:01 [14] [%] | Bind A*24:02 [15] | Aff A*24:02 (ED50) [16] [µM] | Aff C*07:01 (ED50) [18] [µM] | O-rate A*30:01 (t1/2) [20] [h] | Aff B*07:02 (ED50) [21] [µM] | Aff A*02:01 (ED50) [22] [µM] | Bind A*30:02 [1, 23] | further results
IMYNYPAML [Rv0288_4–12] | 1.6 | 5 | 26.9 | 3.1 | 1.6 | 1.0 | 35* percent | 0.2 | 67 | 0.2 | 0.008 | 110 | 107* percent | 0.1 | 0.2 | 0.5 | 30 | 0.8 |  | Bind A*30:02 [1]: 91** percent; Bind A*30:01 [12, 23]: 146** percent; Bind A*02:01 [17, 23]: 94* percent; Bind A*68:01 [19]: 0%
QIMYNYPAM [Rv0288_3–11wt] | 1.5 | 4 | 1.1 | 1.1 | 0.1 | 0.4 |  |  |  | 10 | 0.04 | 34 | 55* percent | 1 |  | 0.8 | 800 | 1 | 90** percent | Bind B*07:02 [8]: 28* percent; Bind A*30:01 [12]: 163** percent; Bind A*02:01 [17]: 68* percent
RAYHAMSST [Rv0288_67–75wt] | 0.8 |  |  | 1.2 |  | 0.2 | 39* percent | 0.2 | 35 | 10 | 1 | 39 |  |  | 10 |  | 20 |  | 73** percent | 
LVRAYHAMS [Rv0288_65–73wt] |  |  |  |  |  |  |  |  |  |  |  |  |  |  |  |  |  |  |  | Bind A*30:02 [1, 24]: 75** percent; Aff A*30:01 (ED50) ([3]; wild-type epitopes marked **): 2 µM; O-rate A*30:02 (t1/2) ([5]; wild-type epitopes marked **): 1.0 h; Bind A*30:01 [12, 24]: 158** percent; Aff A*30:02 (ED50) ([13]; wild-type epitopes marked **): 2 µM; O-rate A*30:01 (t1/2) ([20]; wild-type epitopes marked **): 1.8 h
